In US9663508B2, “Biaryl acyl-sulfonamide compounds as sodium channel inhibitors” (AMGEN INC., priority 2013, dated 2017):

molecular target: human Nav1.7 (Homo sapiens (Human), UniProt Q15858); test: Nav 1.7 in vitro PatchXpress (PX) assay; type: cell-based; details: at 5 µM (5 uM)
Sequence (Q15858 whole entry): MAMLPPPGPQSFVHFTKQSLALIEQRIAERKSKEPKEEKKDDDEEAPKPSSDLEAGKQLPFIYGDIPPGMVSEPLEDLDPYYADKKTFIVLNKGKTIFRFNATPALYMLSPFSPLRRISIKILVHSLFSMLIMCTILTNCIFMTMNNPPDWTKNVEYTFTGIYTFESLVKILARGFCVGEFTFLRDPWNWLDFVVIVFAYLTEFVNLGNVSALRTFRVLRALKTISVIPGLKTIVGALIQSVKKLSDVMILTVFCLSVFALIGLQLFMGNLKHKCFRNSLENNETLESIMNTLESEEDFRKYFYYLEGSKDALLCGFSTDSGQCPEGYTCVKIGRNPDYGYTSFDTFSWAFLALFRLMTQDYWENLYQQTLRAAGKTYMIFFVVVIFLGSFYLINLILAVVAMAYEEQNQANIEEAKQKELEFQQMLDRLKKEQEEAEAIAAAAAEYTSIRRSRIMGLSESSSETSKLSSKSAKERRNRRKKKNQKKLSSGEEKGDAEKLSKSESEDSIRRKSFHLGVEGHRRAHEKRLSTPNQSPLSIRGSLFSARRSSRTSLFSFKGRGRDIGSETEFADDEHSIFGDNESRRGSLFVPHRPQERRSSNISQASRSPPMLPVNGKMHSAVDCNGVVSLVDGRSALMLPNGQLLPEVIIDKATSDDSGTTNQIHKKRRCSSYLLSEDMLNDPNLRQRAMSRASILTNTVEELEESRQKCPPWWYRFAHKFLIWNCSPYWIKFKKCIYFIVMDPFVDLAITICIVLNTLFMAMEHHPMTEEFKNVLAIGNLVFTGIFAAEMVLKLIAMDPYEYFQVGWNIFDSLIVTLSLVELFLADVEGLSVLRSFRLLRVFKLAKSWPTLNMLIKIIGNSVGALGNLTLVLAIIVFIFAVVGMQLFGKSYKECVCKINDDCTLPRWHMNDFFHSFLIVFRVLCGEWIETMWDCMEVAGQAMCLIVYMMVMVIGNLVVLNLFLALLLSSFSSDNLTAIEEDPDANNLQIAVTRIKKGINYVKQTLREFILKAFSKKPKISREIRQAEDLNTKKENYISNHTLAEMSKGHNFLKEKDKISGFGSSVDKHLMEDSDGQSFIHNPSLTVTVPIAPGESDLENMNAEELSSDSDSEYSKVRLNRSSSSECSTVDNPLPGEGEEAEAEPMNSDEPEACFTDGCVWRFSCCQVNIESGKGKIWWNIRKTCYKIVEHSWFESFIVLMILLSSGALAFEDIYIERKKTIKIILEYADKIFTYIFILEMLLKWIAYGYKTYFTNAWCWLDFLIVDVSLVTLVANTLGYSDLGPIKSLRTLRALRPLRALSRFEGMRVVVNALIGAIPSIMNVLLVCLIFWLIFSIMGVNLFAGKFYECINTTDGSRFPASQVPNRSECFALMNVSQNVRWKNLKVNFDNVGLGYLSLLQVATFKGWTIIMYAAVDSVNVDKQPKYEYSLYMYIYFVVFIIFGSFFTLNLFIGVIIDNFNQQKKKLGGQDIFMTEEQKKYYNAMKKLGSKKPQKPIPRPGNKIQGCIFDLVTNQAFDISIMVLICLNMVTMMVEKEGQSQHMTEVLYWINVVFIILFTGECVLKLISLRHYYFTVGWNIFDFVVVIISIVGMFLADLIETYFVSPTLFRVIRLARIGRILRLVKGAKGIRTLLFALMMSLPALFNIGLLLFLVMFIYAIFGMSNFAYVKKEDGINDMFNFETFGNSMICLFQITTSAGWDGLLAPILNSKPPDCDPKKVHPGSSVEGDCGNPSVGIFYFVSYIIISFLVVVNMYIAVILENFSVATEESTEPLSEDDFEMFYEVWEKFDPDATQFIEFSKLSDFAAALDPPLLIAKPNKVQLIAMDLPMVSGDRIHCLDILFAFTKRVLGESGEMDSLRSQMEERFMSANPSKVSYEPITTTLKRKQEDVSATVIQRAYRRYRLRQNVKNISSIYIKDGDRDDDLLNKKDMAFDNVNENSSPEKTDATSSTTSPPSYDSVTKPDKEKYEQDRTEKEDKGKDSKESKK
Description: HEK 293 cells stably transfected with human Nav1.7 were recorded in whole cell voltage clamp mode with the PatchXpress automated electrophysiology system (Molecular Devices, LLC, Sunnyvale, Calif.). Compound effects were measured on a partially inactivated state of the sodium channel. Cells were clamped to a holding potential yielding 20 to 50% inactivation. To elicit sodium current, channels were activated by pulsing to −10 mV for 20 msec. This voltage protocol was repeated at a rate of 0.1 Hz throughout the experiment. A single concentration of test compound was applied to cells for a duration of 3 minutes. Peak sodium current was measured at the end of the compound addition period to determine percent inhibition. Three to five cells were tested per concentration, and IC50 curves were fitted to percent inhibition as a function of concentration.

SMILES	NAV 1.7 PX inhibition [%]
COc1nccc(C)c1-c1cc(C(=O)NS(C)(=O)=O)ccc1-c1cnc(OCC(C)C)c(Cl)c1 [Example 820, 4-(5-Chloro-6-Isobutoxypyridin-3-yl)-3-(2-Methoxy-4-Methylpyridin-3-yl)-N-(Methylsulfonyl)Benzamide]	23

same assay, conditions: in-vitro Nav 1.7 PX data

IC50 [nM]	SMILES
94.7	CCOc1cc(C(=O)NS(C)(=O)=O)c(F)cc1-c1cnc(Oc2cccc(Cl)c2C)c(Cl)c1 [Example 779, 4-(5-chloro-6-(3-chloro-2-methylphenoxy)-3-pyridinyl)-5-ethoxy-2-fluoro-N-(methylsulfonyl)benzamide]
44.5	Cc1c(Cl)cccc1Oc1ncc(-c2cc(F)c(C(=O)NS(C)(=O)=O)cc2OC(F)F)cc1Cl [Example 780, 4-(5-chloro-6-(3-chloro-2-methylphenoxy)-3-pyridinyl)-5-(difluoromethoxy)-2-fluoro-N-(methylsulfonyl)benzamide]
145	CS(=O)(=O)NC(=O)c1cc(OC(F)F)c(-c2cnc(OC3CCC3)c(Cl)c2)cc1F [Example 781, 4-(5-chloro-6-(cyclobutyloxy)-3-pyridinyl)-5-(difluoromethoxy)-2-fluoro-N-(methylsulfonyl)benzamide]
16.1	Cc1cc(Cl)cc(Cl)c1Oc1ncc(-c2cc(F)c(C(=O)NS(C)(=O)=O)cc2OC(F)F)cc1Cl [Example 782, 4-(5-chloro-6-(2,4-dichloro-6-methylphenoxy)-3-pyridinyl)-5-(difluoromethoxy)-2-fluoro-N-(methylsulfonyl)benzamide]
73.2	CS(=O)(=O)NC(=O)c1cc(OC(F)F)c(-c2cnc(O[C@@H]3C[C@H]4CC[C@H]3C4)c(Cl)c2)cc1F [Example 783, 4-(6-((1S,2R,4S)-bicyclo[2.2.1]hept-2-yloxy)-5-chloro-3-pyridinyl)-5-(difluoromethoxy)-2-fluoro-N-(methylsulfonyl)benzamide]
14	CS(=O)(=O)NC(=O)c1cc(OC(F)F)c(-c2cnc(Oc3cc(Cl)cc(Cl)c3)c(Cl)c2)cc1F [Example 784, 4-(5-chloro-6-(3,5-dichlorophenoxy)-3-pyridinyl)-5-(difluoromethoxy)-2-fluoro-N-(methylsulfonyl)benzamide]
73.3	CS(=O)(=O)NC(=O)c1cc(OC(F)F)c(-c2cnc(Oc3c(F)ccc(F)c3F)c(Cl)c2)cc1F [Example 785, 4-(5-chloro-6-(2,3,6-trifluorophenoxy)-3-pyridinyl)-5-(difluoromethoxy)-2-fluoro-N-(methylsulfonyl)benzamide]
55.6	CS(=O)(=O)NC(=O)c1cc(OC(F)F)c(-c2cnc(OCc3ccc(Cl)cc3)c(Cl)c2)cc1F [Example 786, 4-(5-chloro-6-((4-chlorobenzyl)oxy)-3-pyridinyl)-5-(difluoromethoxy)-2-fluoro-N-(methylsulfonyl)benzamide]
78.9	Cc1cc(Cl)cc(Cl)c1Oc1ncc(-c2cc(F)c(C(=O)NS(C)(=O)=O)cc2F)cc1C#N [Example 787, 4-(5-cyano-6-(2,4-dichloro-6-methylphenoxy)pyridin-3-yl)-2,5-difluoro-N-(methylsulfonyl)benzamide]
66.9	CCS(=O)(=O)NC(=O)c1ccc(-c2cnc(Oc3cccc(Cl)c3C)c(Cl)c2)c(OC)c1 [Example 789, 4-(5-chloro-6-(3-chloro-2-methylphenoxy)-3-pyridinyl)-N-(ethylsulfonyl)-3-methoxybenzamide]
123	CCS(=O)(=O)NC(=O)c1ccc(-c2cnc(OC3CCC3)c(Cl)c2)c(OC)c1 [Example 790, 4-(5-chloro-6-(cyclobutyloxy)-3-pyridinyl)-N-(ethylsulfonyl)-3-methoxybenzamide]
39.4	CCS(=O)(=O)NC(=O)c1ccc(-c2cnc(Oc3c(F)ccc(F)c3F)c(Cl)c2)c(OC)c1 [Example 791, 4-(5-chloro-6-(2,3,6-trifluorophenoxy)-3-pyridinyl)-N-(ethylsulfonyl)-3-methoxybenzamide]
85.3	CCS(=O)(=O)NC(=O)c1ccc(-c2cnc(O[C@H]3C[C@H]4CC[C@@H]3C4)c(Cl)c2)c(OC)c1 [Example 792, 4-(6-((1R,2S,4S)-bicyclo[2.2.1]hept-2-yloxy)-5-chloro-3-pyridinyl)-N-(ethylsulfonyl)-3-methoxybenzamide]
50.4	COc1cc(C(=O)NS(C)(=O)=O)ccc1-c1cnc(Cc2ccc(Cl)c(Cl)c2)c(Cl)c1 [Example 793, 4-(5-chloro-6-(3,4-dichlorobenzyl)pyridin-3-yl)-3-methoxy-N-(methylsulfonyl)benzamide]
27.5	Cc1cc(Cl)cc(Cl)c1Oc1ncc(-c2ccc(C(=O)NS(C)(=O)=O)cc2Br)cc1Cl [Example 794, 3-bromo-4-(5-chloro-6-(2,4-dichloro-6-methylphenoxy)-3-pyridinyl)-N-(methylsulfonyl)benzamide]
57.1	Cc1cc(C(=O)NS(=O)(=O)c2nccs2)c(F)cc1-c1cnc(OC2CCC2)c(Cl)c1 [Example 795, 4-(5-chloro-6-(cyclobutyloxy)-3-pyridinyl)-2-fluoro-5-methyl-N-(1,3-thiazol-2-ylsulfonyl)benzamide]

IC50 [nM]	SMILES
98.8	Cc1cc(C(=O)NS(=O)(=O)C2CC2)c(F)cc1-c1cnc(OC2CCC2)c(Cl)c1 [Example 797, 4-(5-chloro-6-(cyclobutyloxy)-3-pyridinyl)-N-(cyclopropylsulfonyl)-2-fluoro-5-methylbenzamide]
618	Cc1cc(C(=O)NS(C)(=O)=O)c(F)cc1-c1ccc(Cl)c(C(F)(F)F)c1 [Example 806, 4′-Chloro-5-Fluoro-2-Methyl-N-(Methylsulfonyl)-3′-(Trifluoromethyl)-4-Biphenylcarboxamide]
413	Cc1cc(C(=O)NS(C)(=O)=O)c(F)cc1-c1ccc(C(F)(F)F)c(Cl)c1 [Example 807, 3′-chloro-5-fluoro-2-methyl-N-(methylsulfonyl)-4′-(trifluoromethyl)-4-biphenylcarboxamide]
2430	Cc1cc(C(=O)NS(C)(=O)=O)c(F)cc1-c1cnc(OCC(F)F)c(Cl)c1 [Example 808, 4-(5-chloro-6-(2,2-difluoroethoxy)-3-pyridinyl)-2-fluoro-5-methyl-N-(methylsulfonyl)benzamide]
647	Cc1cc(C(=O)NS(C)(=O)=O)c(F)cc1-c1ccc2c(c1)OC(F)(F)O2 [Example 809, 4-(2,2-difluoro-1,3-benzodioxol-5-yl)-2-fluoro-5-methyl-N-(methylsulfonyl)benzamide]
4020	Cc1cc(C(=O)NS(C)(=O)=O)c(F)cc1-c1ccc(OCC(F)(F)F)cc1 [Example 810, 5-fluoro-2-methyl-N-(methylsulfonyl)-4′-(2,2,2-trifluoroethoxy)-4-biphenylcarboxamide]
1570	Cc1cc(C(=O)NS(C)(=O)=O)c(F)cc1-c1ccc(OC(F)(F)C(F)F)cc1 [Example 811, 5-fluoro-2-methyl-N-(methylsulfonyl)-4′-(1,1,2,2-tetrafluoroethoxy)-4-biphenylcarboxamide]
5840	Cc1cc(C(=O)NS(C)(=O)=O)c(F)cc1-c1cccc(OC(F)(F)C(F)F)c1 [Example 812, 5-fluoro-2-methyl-N-(methylsulfonyl)-3′-(1,1,2,2-tetrafluoroethoxy)-4-biphenylcarboxamide]
141	Cc1cc(C(=O)NS(C)(=O)=O)c(F)cc1-c1ccc(CC2CC2)c(Cl)c1 [Example 813, 3′-chloro-4′-(cyclopropylmethyl)-5-fluoro-2-methyl-N-(methylsulfonyl)-4-biphenylcarboxamide]
381	CCc1ccc(-c2cc(F)c(C(=O)NS(C)(=O)=O)cc2C)cc1Cl [Example 814, 3′-chloro-4′-ethyl-5-fluoro-2-methyl-N-(methylsulfonyl)-4-biphenylcarboxamide]
231	Cc1cc(C(=O)NS(C)(=O)=O)c(F)cc1-c1cnc(NC(C)(C)C)c(Cl)c1 [Example 815, 4-(6-(tert-butylamino)-5-chloro-3-pyridinyl)-2-fluoro-5-methyl-N-(methylsulfonyl)benzamide]
169	Cc1cc(C(=O)NS(C)(=O)=O)c(F)cc1-c1cnc(Oc2cc(Cl)cc(Cl)c2)c(C(F)(F)F)c1 [Example 817, 4-(6-(3,5-Dichlorophenoxy)-5-(Trifluoromethyl)Pyridin-3-yl)-2-Fluoro-5-Methyl-N-(Methylsulfonyl)Benzamide]
169	COc1cccc(CSc2ncc(-c3cc(F)c(C(=O)NS(C)(=O)=O)cc3C)cc2Cl)c1 [Example 818, 4-(5-Chloro-6-((3-Methoxybenzyl)Thio)-Pyridin-3-yl)-2-Fluoro-5-Methyl-N-(Methylsulfonyl)Benzamide]
6560	COc1cc(C(=O)NS(C)(=O)=O)ccc1-c1cnc(COc2ccc(C#N)cc2)c(Cl)c1 [Example 819, 4-(5-Chloro-6-((4-Cyanophenoxy)Methyl)-Pyridin-3-yl)-3-Methoxy-N-(Methylsulfonyl)Benzamide]
151	COc1cc(C(=O)NS(C)(=O)=O)ccc1-c1cnc(Oc2cc(Cl)cc(Cl)c2)c(C=O)c1 [Example 822, 4-(6-(3,5-Dichlorophenoxy)-5-Formylpyridin-3-yl)-3-Methoxy-N-(Methylsulfonyl)Benzamide]
179	Cc1cc(C(=O)NS(C)(=O)=O)c(F)cc1-c1cnc(Oc2cc(Cl)cc(Cl)c2)c(C(F)F)c1 [Example 823, 4-(6-(3,5-Dichlorophenoxy)-5-(Difluoromethyl)Pyridin-3-yl)-2-Fluoro-5-Methyl-N-(Methyl Sulfonyl)Benzamide]

SMILES	IC50 [nM]
CS(=O)(=O)NC(=O)c1cc(C2CC2)c(-c2cnc(OC3CCC3)c(Cl)c2)cc1F [Example 802, 4-(5-chloro-6-cyclobutoxypyridin-3-yl)-5-cyclopropyl-2-fluoro-N-(methylsulfonyl)benzamide]	136
Cc1cc(C(=O)NS(C)(=O)=O)c(F)cc1-c1cnc(OC(C)(C)C)c(Cl)c1 [Example 816, 4-(6-tert-butoxy-5-chloro-3-pyridinyl)-2-fluoro-5-methyl-N-(methylsulfonyl)benzamide]	156
COc1cc(C(=O)NS(C)(=O)=O)ccc1-c1cnc(Oc2ccc(C)c(Cl)c2)c(C#N)c1 [Example 829, 4-(6-(3-chloro-4-methylphenoxy)-5-cyano-3-pyridinyl)-3-methoxy-N-(methylsulfonyl)benzamide]	50.5
